According to patent US20120245137A1 (Zalicus Pharmaceuticals Ltd., priority 2009, published 2012):

What follows are molecules tested against N-type calcium channel subunits (α1B, α2δ, and β3a) (Homo sapiens, UniProt Q00975) (assay: Block of Cav2.2 channel, whole cell voltage clamp, manual and PatchXpress). Details: Table 5; table follows Assay Example 3 (whole cell voltage clamp / PatchXpress); assay not given.
Type: cell-based
Protocol: Cells are grown either on poly-D-lysine coated coverglass (manual EP) or in TIS culture plates (PatchXpress). For the PatchExpress, cells are released from the flask using trypsin. In both cases, the […] solution is (in mM): 130 […], 10 EGTA, 10 HEPES, 2 MgCl2, 3 MgATP, pH 7.3 with CsOH.
Microelectrodes are fabricated from borosilicate glass and fire-polished. […] The reference electrode is a silver-silver chloride pellet. Voltages are not corrected for the liquid junction potential between the internal and external solutions and leak is subtracted using the P/n procedure. Solutions are applied to cells by bath perfusion via gravity. The experimental chamber volume is—0.2 mL. and the perfusion rate is 0.5-2 mL/min. Flow of suction through the chamber is maintained at all times. Measurement of current amplitudes is performed with […] software (HEKA Elektronik).
PatchXpress (Molecular Devices) is a 16-well whole-cell automated patch clamp device that operates asynchronously with fully integrated fluidics. […] Capacitance and series resistance compensation is automated. No correction for liquid junction potentials is employed. Leak is subtracted using the P/n procedure. Compounds are added to cells with a pipettor from a 96-well compound plate. Voltage protocols and the recording of membrane currents are performed using the PatchXpress software/hardware system. Current amplitudes are calculated with DataXpress software.
In both manual and automated patch clamp, cells are voltage clamped at […] or −90 m V and 50 ms pulses to +20 mV are applied every 15 sec (0.067 Hz). Compounds are added in escalating doses to measure % inhibition. Percent inhibition is calculated from the ratio of the curerent amplitude in the presence and absence of compound. When multiple doses are achieved per cell, IC50 values are calculated.

Chain of N-type calcium channel subunits (α1B, α2δ, and β3a) (Q00975 whole entry): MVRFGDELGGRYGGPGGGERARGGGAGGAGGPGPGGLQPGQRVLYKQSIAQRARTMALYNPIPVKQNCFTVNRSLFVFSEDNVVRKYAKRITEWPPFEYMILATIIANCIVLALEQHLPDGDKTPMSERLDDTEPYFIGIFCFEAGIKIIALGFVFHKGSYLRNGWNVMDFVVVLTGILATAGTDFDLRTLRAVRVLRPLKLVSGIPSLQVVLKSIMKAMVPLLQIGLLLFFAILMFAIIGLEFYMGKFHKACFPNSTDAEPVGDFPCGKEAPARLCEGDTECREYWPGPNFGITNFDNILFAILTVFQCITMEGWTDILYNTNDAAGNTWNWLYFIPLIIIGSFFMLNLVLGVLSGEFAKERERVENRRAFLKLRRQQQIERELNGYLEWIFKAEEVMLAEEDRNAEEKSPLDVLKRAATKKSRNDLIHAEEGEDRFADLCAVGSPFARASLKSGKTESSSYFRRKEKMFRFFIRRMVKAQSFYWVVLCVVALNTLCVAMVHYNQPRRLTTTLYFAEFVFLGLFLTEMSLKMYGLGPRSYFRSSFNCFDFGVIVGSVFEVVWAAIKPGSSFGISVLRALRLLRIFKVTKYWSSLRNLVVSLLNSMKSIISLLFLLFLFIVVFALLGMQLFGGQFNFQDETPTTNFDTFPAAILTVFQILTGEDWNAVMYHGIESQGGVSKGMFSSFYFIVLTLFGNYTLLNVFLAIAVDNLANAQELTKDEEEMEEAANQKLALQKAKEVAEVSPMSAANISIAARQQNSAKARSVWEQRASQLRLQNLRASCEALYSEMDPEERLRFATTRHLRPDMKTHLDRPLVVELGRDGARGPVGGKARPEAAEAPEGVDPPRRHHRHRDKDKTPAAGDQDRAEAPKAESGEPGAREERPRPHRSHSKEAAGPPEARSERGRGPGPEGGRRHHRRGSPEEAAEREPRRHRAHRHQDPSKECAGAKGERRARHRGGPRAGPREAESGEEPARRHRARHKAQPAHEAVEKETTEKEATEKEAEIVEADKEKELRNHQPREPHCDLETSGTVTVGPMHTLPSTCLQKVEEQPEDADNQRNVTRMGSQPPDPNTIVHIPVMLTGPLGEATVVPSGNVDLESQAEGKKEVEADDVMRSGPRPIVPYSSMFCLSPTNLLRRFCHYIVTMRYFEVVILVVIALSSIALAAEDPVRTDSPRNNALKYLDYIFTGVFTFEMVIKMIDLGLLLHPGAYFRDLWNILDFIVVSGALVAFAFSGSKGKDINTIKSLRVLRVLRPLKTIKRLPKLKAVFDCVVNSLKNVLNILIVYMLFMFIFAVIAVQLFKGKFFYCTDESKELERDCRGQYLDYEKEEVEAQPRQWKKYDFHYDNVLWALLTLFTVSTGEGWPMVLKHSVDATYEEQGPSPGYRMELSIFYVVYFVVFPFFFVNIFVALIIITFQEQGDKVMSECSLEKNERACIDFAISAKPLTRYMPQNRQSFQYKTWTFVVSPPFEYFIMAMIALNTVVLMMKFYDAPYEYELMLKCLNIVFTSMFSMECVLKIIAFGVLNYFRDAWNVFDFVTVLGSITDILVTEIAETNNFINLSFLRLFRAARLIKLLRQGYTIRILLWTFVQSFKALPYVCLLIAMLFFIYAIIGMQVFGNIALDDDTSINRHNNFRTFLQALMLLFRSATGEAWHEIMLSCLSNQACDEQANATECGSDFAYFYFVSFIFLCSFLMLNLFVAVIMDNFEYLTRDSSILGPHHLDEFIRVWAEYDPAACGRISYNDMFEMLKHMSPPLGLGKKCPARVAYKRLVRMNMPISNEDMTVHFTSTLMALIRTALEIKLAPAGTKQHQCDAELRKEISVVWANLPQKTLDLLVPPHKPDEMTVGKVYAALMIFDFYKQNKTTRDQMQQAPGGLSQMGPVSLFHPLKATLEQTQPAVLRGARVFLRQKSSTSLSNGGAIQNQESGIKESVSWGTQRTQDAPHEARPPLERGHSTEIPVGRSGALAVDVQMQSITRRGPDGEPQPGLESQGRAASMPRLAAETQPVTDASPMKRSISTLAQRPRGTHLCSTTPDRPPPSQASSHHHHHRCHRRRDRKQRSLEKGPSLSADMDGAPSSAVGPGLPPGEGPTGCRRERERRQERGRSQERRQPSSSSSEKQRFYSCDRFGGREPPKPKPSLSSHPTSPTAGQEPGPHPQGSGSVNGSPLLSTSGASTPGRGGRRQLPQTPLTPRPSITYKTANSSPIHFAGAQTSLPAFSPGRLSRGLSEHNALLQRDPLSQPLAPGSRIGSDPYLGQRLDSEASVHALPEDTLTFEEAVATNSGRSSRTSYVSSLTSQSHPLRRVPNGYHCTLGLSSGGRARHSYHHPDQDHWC
Chain of N-type calcium channel subunits (α1B, α2δ, and β3a) (P54289 25-1103 partner): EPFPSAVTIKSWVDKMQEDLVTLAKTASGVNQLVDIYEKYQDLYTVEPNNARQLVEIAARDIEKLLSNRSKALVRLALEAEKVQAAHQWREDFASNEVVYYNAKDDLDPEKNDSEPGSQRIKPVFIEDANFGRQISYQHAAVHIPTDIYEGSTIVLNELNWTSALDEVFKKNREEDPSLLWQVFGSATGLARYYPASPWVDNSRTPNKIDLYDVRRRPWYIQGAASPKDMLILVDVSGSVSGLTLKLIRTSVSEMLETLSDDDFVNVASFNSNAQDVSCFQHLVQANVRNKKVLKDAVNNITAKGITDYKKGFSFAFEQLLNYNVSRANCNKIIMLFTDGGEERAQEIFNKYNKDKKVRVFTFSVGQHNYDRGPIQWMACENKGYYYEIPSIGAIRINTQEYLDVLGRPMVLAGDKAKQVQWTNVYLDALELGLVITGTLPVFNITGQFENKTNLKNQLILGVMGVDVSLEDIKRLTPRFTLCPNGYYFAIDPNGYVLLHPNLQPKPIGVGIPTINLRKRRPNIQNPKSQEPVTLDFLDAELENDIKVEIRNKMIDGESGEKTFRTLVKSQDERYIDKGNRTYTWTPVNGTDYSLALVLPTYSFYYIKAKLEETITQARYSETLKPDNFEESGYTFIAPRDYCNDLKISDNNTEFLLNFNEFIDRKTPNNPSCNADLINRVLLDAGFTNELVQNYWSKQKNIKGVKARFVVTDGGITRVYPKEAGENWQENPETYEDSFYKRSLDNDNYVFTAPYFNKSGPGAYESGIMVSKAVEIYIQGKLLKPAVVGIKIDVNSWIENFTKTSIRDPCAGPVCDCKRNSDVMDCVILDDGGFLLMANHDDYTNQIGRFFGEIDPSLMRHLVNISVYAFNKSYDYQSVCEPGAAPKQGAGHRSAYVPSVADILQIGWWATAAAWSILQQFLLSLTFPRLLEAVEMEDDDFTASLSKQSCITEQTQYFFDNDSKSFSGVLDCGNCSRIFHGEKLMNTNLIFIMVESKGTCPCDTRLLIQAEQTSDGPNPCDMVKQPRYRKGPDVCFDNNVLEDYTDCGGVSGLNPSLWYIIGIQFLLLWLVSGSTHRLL
Chain of N-type calcium channel subunits (α1B, α2δ, and β3a) (P54284 whole entry partner): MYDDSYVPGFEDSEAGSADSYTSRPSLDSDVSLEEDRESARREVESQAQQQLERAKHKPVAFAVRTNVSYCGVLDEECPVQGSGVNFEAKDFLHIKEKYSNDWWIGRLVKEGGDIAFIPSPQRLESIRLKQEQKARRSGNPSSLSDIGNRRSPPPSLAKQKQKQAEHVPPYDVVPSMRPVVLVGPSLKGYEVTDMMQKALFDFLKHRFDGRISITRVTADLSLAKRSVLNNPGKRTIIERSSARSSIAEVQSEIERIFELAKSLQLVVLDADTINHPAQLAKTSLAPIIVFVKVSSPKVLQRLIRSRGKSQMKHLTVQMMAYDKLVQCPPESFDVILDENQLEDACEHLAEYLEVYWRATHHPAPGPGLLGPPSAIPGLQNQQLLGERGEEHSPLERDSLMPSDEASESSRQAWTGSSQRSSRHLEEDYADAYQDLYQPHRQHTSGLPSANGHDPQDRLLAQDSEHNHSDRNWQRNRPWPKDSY

Molecule	IC50
CS(=O)(=O)c1cc(C(F)(F)F)ccc1C(=O)NC[C@]1(O)CC[C@@H](S(=O)(=O)c2cccc(C(F)(F)F)c2)CC1 [Compound 233, N-(((1S,4S)-1-hydroxy-4-(3-(trifluoromethyl)phenylsulfonyl)cyclohexyl)methyl)-2-(methylsulfonyl)-4-(trifluoromethyl)benzamide]	3570 nM
O=C(NC[C@]1(O)CC[C@@H](S(=O)(=O)c2cccc(C(F)(F)F)c2)CC1)c1ccc(C(F)(F)F)nc1 [Compound 235, N-(((1S,4S)-1-hydroxy-4-(3-(trifluoromethyl)phenylsulfonyl)cyclohexyl)methyl)-6-(trifluoromethyl)nicotinamide]	5940 nM
O=C(N[C@H]1CC[C@H](S(=O)(=O)c2cccc(C(F)(F)F)c2)CC1)c1ccnc(C(F)(F)F)c1 [Compound 189, 2-(trifluoromethyl)-N-((1R,4R)-4-(3-(trifluoromethyl)phenylsulfonyl)cyclohexyl)isonicotinamide]	1540 nM
O=C(CN[C@H]1CC[C@@H](S(=O)(=O)c2cccc(C(F)(F)F)c2)CC1)N1CCOCC1 [Compound 53, 1-morpholino-2-((1S,4S)-4-(3-(trifluoromethyl)phenylsulfonyl)cyclohexylamino)ethanone]	4720 nM
O=C(N[C@H]1CC[C@H](S(=O)(=O)c2cccc(C(F)(F)F)c2)CC1)c1ccnn1CC(F)(F)F [Compound 180, 1-(2,2,2-trifluoroethyl)-N-((1R,4R)-4-(3-(trifluoromethyl)phenylsulfonyl)cyclohexyl)-1H-pyrazole-5-carboxamide]	3350 nM
CC1(CNC(=O)c2nc3ccc(C(F)(F)F)cc3[nH]2)CCC(F)(S(=O)(=O)c2cccc(C(F)(F)F)c2)CC1 (centres unmarked) [Compound 156, N-((4-fluoro-1-methyl-4-(3-(trifluoromethyl)phenylsulfonyl)cyclohexyl)methyl)-6-(trifluoromethyl)-1H-benzo[d]imidazole-2-carboxamide]	1230 nM
COc1cc(C(=O)NCC2(C)CCC(F)(S(=O)(=O)c3cccc(C(F)(F)F)c3)CC2)ccn1 (centres unmarked) [Compound 157, N-((4-fluoro-1-methyl-4-(3-(trifluoromethyl)phenylsulfonyl)cyclohexyl)methyl)-2-methoxyisonicotinamide]	1030 nM
O=C(N[C@H]1CC[C@H](S(=O)(=O)c2cccc(C(F)(F)F)c2)CC1)c1ccc(C(F)(F)F)nc1 [Compound 186, 6-(trifluoromethyl)-N-((1R,4R)-4-(3-(trifluoromethyl)phenylsulfonyl)cyclohexyl)nicotinamide]	5840 nM
CC(C)(C)NCC(=O)N[C@H]1CC[C@H](CS(=O)(=O)c2cccc(C(F)(F)F)c2)CC1 [Compound 160, 2-(tert-butylamino)-N-((1R,4R)-4-((3-(trifluoromethyl)phenylsulfonyl)methyl)cyclohexyl)acetamide]	1990 nM
O=C(N[C@H]1CC[C@H](CS(=O)(=O)c2cccc(C(F)(F)F)c2)CC1)c1ccnc(C(F)(F)F)c1 [Compound 176, 2-(trifluoromethyl)-N-((1R,4R)-4-((3-(trifluoromethyl)phenylsulfonyl)methyl)cyclohexyl)isonicotinamide]	9440 nM
O=C(NC[C@H]1CC[C@@H](S(=O)(=O)c2cccc(C(F)(F)F)c2)CC1)c1cc(C(F)(F)F)n[nH]1 [Compound 34, 3-(trifluoromethyl)-N-(((1S,4S)-4-(3-(trifluoromethyl)phenylsulfonyl)cyclohexyl)methyl)-1H-pyrazole-5-carboxamide]	640 nM
CC(C)(C)S(=O)(=O)c1ccsc1C(=O)N[C@H]1CC[C@H](S(=O)(=O)c2cccc(C(F)(F)F)c2)CC1 [Compound 191, 3-(tert-butylsulfonyl)-N-((1R,4R)-4-(3-(trifluoromethyl)phenylsulfonyl)cyclohexyl)thiophene-2-carboxamide]	1220 nM
3-(methylsulfonyl)-5-(trifluoromethyl)- N-(((1S,3S)- 3-(3-(trifluoromethyl) phenylsulfonyl)cyclobutyl) methyl)picolinamide [Compound 388]	1060 nM
O=C(N[C@H]1C[C@H](S(=O)(=O)c2cccc(C(F)(F)F)c2)C1)c1ccc(F)c(Cl)c1 [Compound 225, 3-chloro-4-fluoro-N-(trans-3-(3-(trifluoromethyl)phenylsulfonyl)cyclobutyl)benzamide]	2350 nM
O=C(N[C@H]1CC[C@H](CS(=O)(=O)c2cccc(C(F)(F)F)c2)CC1)c1cnccc1C(F)(F)F [Compound 169, 4-(trifluoromethyl)-N-((1R,4R)-4-((3-(trifluoromethyl)phenylsulfonyl)methyl)cyclohexyl)nicotinamide]	7110 nM
O=C(CN[C@H]1C[C@H](S(=O)(=O)c2cccc(C(F)(F)F)c2)C1)NC1CCCCC1 [Compound 216, N-cyclohexyl-2-(trans-3-(3-(trifluoromethyl)phenylsulfonyl)cyclobutylamino)acetamide]	1010 nM
O=C1c2ccc(C(F)(F)F)cc2C(=O)N1C1CCC(F)(S(=O)(=O)c2cccc(C(F)(F)F)c2)CC1 [Compound 280, 2-((1S,4S)-4-fluoro-4-(3-(trifluoromethyl)phenylsulfonyl)cyclohexyl)-5-(trifluoromethyl)isoindoline-1,3-dione]	> 10000 nM
2-chloro-6-(trifluoromethyl)-N- ((1S,4S)-4-(3- (trifluoromethyl)phenylsulfonyl) cyclohexyl)nicotinamide [Compound 200]	1020 nM

Now from value to molecule:

IC50	Molecule
1470 nM	CC([C@H]1C[C@H](NC(=O)c2ncc(C(F)(F)F)cc2S(C)(=O)=O)C1)S(=O)(=O)c1cccc(C(F)(F)F)c1 (stereo partly drawn) [Compound 435, 3-(methylsulfonyl)-5-(trifluoromethyl)-N-((1R,3R)-3-((R)-1-(3-(trifluoromethyl)phenylsulfonyl)ethyl)cyclobutyl) picolinamide]
80 nM	CC(C)([C@H]1C[C@H](NC(=O)c2ccc(F)c(C(F)(F)F)c2)C1)S(=O)(=O)c1cccc(C(F)(F)F)c1 [Compound 440, 4-fluoro-3-(trifluoromethyl)-N-((1R,3R)-3-(2-(3-(trifluoromethyl)phenylsulfonyl)propan-2-yl)cyclobutyl)benzamide]
1010 nM	O=C(N[C@H]1CC[C@@](F)(S(=O)(=O)c2cccc(C(F)(F)F)c2)CC1)c1ccc(O)c(C(F)(F)F)c1 [Compound 247, N-((1S,4S)-4-fluoro-4-(3-(trifluoromethyl)phenylsulfonyl)cyclohexyl)-4-hydroxy-3-(trifluoromethyl)benzamide]
630 nM	CC(C)([C@H]1C[C@H](NC(=O)c2ncc(C(F)(F)F)cc2S(C)(=O)=O)C1)S(=O)(=O)c1cccc(C(F)(F)F)c1 [Compound 436, 3-(methylsulfonyl)-5-(trifluoromethyl)-N-((1R,3R)-3-(2-(3-(trifluoromethyl)phenylsulfonyl)propan-2-yl)cyclobutyl)picolinamide]
> 10000 nM	O=C(N[C@H]1C[C@@H](S(=O)(=O)c2cccc(C(F)(F)F)c2)C1)c1ccc(C(F)(F)F)nc1 [Compound 430, 6-(trifluoromethyl)-N-((1S,3S)-3-(3-(triffuoromethyl)phenylsulfonyl)cyclobutyl) nicotinamide]
1630 nM	O=C(NC[C@H]1C[C@H](S(=O)(=O)c2cc(F)cc(C(F)(F)F)c2)C1)c1ccc(C(F)(F)F)cn1 [Compound 390, N-(((1R,3R)-3-(3-fluoro-5-(trifluoromethyl)phenylsulfonyl)cyclobutyl)methyl)-5-(trifluoromethyl) picolinamide]
440 nM	O=S(=O)(c1cccc(C(F)(F)F)c1)[C@H]1C[C@H](c2c[nH]c(-c3ccc(C(F)(F)F)cc3)n2)C1 [Compound 443, 2-(4-(trifluoromethyl)phenyl)-4-((1R,3R)-3-(3-(trifluoromethyl)phenylsulfonyI)cyclobutyl)-1H-imidazole]
510 nM	O=C(NC[C@H]1C[C@H](S(=O)(=O)c2cc(F)cc(C(F)(F)F)c2)C1)c1ccc(Cl)c(OC(F)(F)F)c1 [Compound 394, 4-chloro-N-(((1R,3R)-3-(3-fluoro-5-(trifluoromethyl)phenylsulfonyl)cyclobutyl)methyl)-3-(trifluoromethoxy)benzamide]
1830 nM	CC(C)(C)c1nc([C@H]2C[C@@H](S(=O)(=O)c3cccc(C(F)(F)F)c3)C2)c[nH]1 [Compound 447, 2-tert-butyl-4-((1S,3S)-3-(3-(trifluoromethyl)phenylsulfonyl)cyclobutyl)-1H-imidazole]
1050 nM	N[C@@H]1CCCC[C@H]1C(=O)N[C@H]1CC[C@@](F)(S(=O)(=O)c2cccc(C(F)(F)F)c2)CC1 [Compound 284, (1R,2R)-2-amino-N-((1S,4S)-4-fluoro-4-(3-(trifluoromethyl)phenylsulfonyl)cyclohexyl) cyclohexanecarboxamide]
910 nM	O=C(NC[C@H]1C[C@H](S(=O)(=O)c2cc(F)cc(C(F)(F)F)c2)C1)c1cc(C(F)(F)F)ccn1 [Compound 397, N-(((1R,3R)-3-(3-fluoro-5-(trifluoromethyl)phenylsulfonyl)cyclobutyl)methyl)-4-(trifluoromethyl)picolinamide]
